Patent US4715994A, “Novel antibacterial agents and potentiators of carbapenem antibiotics” (Merck & Co., Inc., priority 1986, dated 1987)
pKi: −log10 of the molar value. Read-outs that look alike come from different tables or passages of the source.

Molecular target: T1, dehydropeptidase-I (renal dipeptidase, EC 3.4.13.11) (Sus scrofa, UniProt P22412)
T1 construct: isolated from hog kidneys; from tissue; host or cells: hog kidney, solubilized and lyophilized enzyme preparation
T1 sequence (P22412 17-409): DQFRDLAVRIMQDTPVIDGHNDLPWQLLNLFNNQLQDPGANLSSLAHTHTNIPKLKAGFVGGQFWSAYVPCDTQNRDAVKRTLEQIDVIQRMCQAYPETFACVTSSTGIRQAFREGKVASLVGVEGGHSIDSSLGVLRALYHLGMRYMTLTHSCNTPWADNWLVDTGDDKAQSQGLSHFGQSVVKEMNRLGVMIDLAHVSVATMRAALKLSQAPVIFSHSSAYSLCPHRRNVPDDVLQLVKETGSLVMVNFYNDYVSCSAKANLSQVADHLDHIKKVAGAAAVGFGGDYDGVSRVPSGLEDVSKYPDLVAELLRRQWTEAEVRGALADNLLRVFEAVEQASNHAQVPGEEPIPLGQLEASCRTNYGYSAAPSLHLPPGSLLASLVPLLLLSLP
Test: Renal dehydropeptidase I inhibition (hydrolysis of glycyldehydrophenylalanine)
Type: biochemical, hog
Experimental: This measured the ability of compounds to inhibit hydrolysis of glycyldehydrophenylalanine (GDP) by a solubilized preparation of […] isolated from hog kidneys. The procedure is as follows: to a 1 ml system containing 50 mM "MOPS" (3-(N-morpholino)propanesulfonic acid) buffer, pH 7.1, is added 5 μg of lyophilized enzyme, and the test compound at a final concentration of 0.1 mM. After a five minute incubation at 37° C., GDP is added to a final concentration of 0.05 mM. […] Inhibition of the enzyme is gauged by comparison to a standard run containing no inhibitor and is expressed as the inhibitor binding constant, Ki.

[1] = read-out: RENAL DEHYDROPEPTIDASE I INHIBITION Ki

| pKi [1] | SMILES | pKi |
| --- | --- | --- |
| – | C[C@H](N)P(=O)(O)CC(CCCc1ccccc1)C(=O)O (some centres unmarked) [L, R2 phenylpropyl] | 7.57 |
| – | CC(CP(=O)(O)[C@H](C)N)C(=O)O (stereo partly drawn) [L, R2 methyl, 1-L-Aminoethyl-(2-carboxy-1-propyl)phosphinic acid] | 8.00 |
| – | C=C(CP(=O)(O)[C@H](C)N)C(=O)O [L, R5 H] | 7.57 |
| 7.80 | CC(N)P(=O)(O)C/C(=C\CCc1ccccc1)C(=O)O (stereo not drawn) [DL, R5 phenethyl, Z, 1-Aminoethyl-(2-carboxy-5-phenyloct-2-enyl)phosphinic acid (E and Z isomers)] | – |
| 7.92 | CC(N)P(=O)(O)CC(CCCc1ccncc1)C(=O)O (stereo not drawn) [DL, R2 4-pyridylpropyl, 1-Aminoethyl-[2-carboxy-5-(4-pyridyl)-1-n-pentyl]-phosphinic acid] | – |
| – | C=C(CP(=O)(O)[C@@H](C)N)C(=O)O [D, R5 H] | 6.64 |
| – | CC(CP(=O)(O)C(C)N)C(=O)O (stereo not drawn) [DL, R2 methyl, R3 H, 1-Aminoethyl-(2-carboxy-1-propyl)phosphinic acid] | 8.00 |
| 8.24 | CCCCCC=C(CP(=O)(O)C(C)N)C(=O)O (racemic) [DL, R5 n-pentyl, (E, Z isomers), 1-Aminoethyl-(2-carboxy-oct-2-enyl)phosphinic acid (E/Z mixture)] | – |
| – | CC(CP(=O)(O)[C@@H](C)N)C(=O)O (stereo partly drawn) [D, R2 methyl, R3 H, 1-D-Aminoethyl-(2-carboxy-1-propyl)phosphinic acid] | 6.85 |
| 8.15 | CC(N)P(=O)(O)C/C(=C/CCc1ccccc1)C(=O)O (stereo not drawn) [DL, R5 phenethyl, E] | – |

| SMILES | pKi [1] | pKi |
| --- | --- | --- |
| C[C@@H](N)P(=O)(O)CC(CCCc1ccccc1)C(=O)O (some centres unmarked) [D, R2 phenylpropyl] | 6.00 | – |
